Experimental data: publication PMC6658769, “First-Time-in-Human Study and Prediction of Early Bactericidal Activity for GSK3036656, a Potent Leucyl-tRNA Synthetase Inhibitor for Tuberculosis Treatment” (Antimicrobial Agents and Chemotherapy, 2019)
Converted amounts (≈) assume the structure as drawn. Where two headings read alike, the source gives them in different places.

Key:
[1] = target: P-glycoprotein (P-gp) (Homo sapiens, UniProt P08183); assay: P-gp substrate assessment; assay type: in vitro ADME; conditions: not told
[2] = human, in vivo
[3] = clinical; conditions: human, in vivo, po
[4] = system: M. tuberculosis H37Rv; assay: Acute lung infection model in mice; assay type: in vivo, C57BL/6 mice
Experimental: The efficacy of GSK3036656 was assessed in C57BL/6 mice having acute and chronic lung infections by M. tuberculosis H37Rv, which mimic infections by actively replicating and nonreplicating/slow-replicating mycobacteria, respectively ([13], [14]). In the acute model, 10 mice were administered different daily oral doses ranging from 0.1 to 100 mg/kg of body weight for 8 days starting 1 day after infection. A maximum difference of 3.6 log CFU was obtained in the lungs compared to untreated mice. […] In the chronic model, a total of 18 mice were administered doses ranging from 0.1 to 30 mg/kg from weeks 6 to 14 after infection. Maximum reduction (drop of 2.1 log10 CFU in the lungs) was achieved after 2 months of daily oral treatment and after fitting the data to a sigmoidal curve. The EDmax for GSK3036656 was estimated as 1.3 mg/kg ([…], 0.7 to 3.4 mg/kg). […] Some additional groups treated at 0.3 to 30 mg/kg were studied in the chronic model to obtain kinetic data (from 2 to 16 weeks of treatment).

[5] = clinical; conditions: human, in vivo
[6] = system: M. tuberculosis fast-growing and slow-growing populations; assay: PK/PD parameters estimated from acute and chronic mouse infection models; assay type: in vivo; conditions: for EC50: Mycobacterium tuberculosis
[7] = Population PK model at completion of the study
[8] = Nonclinical toxicity studies (NOAEL exposure); assay type: in vivo; conditions: oral
Source text: The principal findings observed in nonclinical toxicity studies following oral administration of GSK3036656 were cardiovascular and hematopoietic, with some minor changes in the liver, kidney, and thymus. The hematopoietic, kidney, liver, and thymus effects are considered either nonadverse or monitorable in the clinic. The structural cardiovascular changes that occurred in a single species at high doses were nonmonitorable but occurred at plasma concentrations where heart rate (HR) and blood pressure (BP) changes are recorded. Specific cardiovascular safety endpoints were included in the first-time-in-human (FTIH) study, including vital sign (HR and BP) stopping criteria.

[9] = in vitro; assay type: in vitro ADME; conditions: mouse, plasma
[10] = target: CYP3A4 (Homo sapiens, UniProt P08684); assay: Metabolism-dependent inhibition or induction of CYP3A4; assay type: in vitro ADME; conditions: in vitro
[11] = FTIH study part A (single dose): safety and tolerability
[12] = in vitro; assay type: in vitro ADME; conditions: dog, plasma

Chain of P-glycoprotein (P-gp) (P08183 whole entry): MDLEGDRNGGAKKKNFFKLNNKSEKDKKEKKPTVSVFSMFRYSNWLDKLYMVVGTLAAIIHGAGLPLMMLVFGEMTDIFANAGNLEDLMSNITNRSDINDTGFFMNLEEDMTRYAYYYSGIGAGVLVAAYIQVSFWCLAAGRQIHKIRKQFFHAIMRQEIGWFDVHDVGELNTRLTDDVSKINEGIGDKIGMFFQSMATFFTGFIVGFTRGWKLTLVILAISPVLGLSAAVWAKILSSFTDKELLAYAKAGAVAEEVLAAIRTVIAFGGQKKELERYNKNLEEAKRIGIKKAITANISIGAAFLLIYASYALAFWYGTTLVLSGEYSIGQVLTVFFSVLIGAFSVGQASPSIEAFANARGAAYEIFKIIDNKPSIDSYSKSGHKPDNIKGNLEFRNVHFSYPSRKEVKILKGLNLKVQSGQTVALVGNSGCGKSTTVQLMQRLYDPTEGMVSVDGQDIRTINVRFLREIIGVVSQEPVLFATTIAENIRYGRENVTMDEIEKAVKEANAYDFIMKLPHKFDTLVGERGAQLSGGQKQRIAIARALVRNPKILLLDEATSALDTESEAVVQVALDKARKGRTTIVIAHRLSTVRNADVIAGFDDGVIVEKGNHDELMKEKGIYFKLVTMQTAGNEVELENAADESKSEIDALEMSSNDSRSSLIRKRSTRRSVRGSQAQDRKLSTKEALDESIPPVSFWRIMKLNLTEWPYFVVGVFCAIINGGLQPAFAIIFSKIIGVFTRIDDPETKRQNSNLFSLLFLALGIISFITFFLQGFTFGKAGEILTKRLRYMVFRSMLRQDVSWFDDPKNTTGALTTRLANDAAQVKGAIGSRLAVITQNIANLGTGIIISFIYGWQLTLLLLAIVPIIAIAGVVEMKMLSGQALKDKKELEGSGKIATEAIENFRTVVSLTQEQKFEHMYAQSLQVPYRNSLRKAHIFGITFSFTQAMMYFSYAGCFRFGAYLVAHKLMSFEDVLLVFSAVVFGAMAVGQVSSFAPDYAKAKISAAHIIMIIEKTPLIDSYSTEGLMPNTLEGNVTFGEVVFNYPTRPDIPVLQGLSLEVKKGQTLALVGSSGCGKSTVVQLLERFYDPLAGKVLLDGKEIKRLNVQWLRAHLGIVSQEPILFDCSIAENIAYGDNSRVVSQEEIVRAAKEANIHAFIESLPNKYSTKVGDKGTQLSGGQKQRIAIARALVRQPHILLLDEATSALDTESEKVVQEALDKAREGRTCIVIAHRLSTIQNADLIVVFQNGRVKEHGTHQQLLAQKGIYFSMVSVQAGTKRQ
Chain of CYP3A4 (P08684 whole entry): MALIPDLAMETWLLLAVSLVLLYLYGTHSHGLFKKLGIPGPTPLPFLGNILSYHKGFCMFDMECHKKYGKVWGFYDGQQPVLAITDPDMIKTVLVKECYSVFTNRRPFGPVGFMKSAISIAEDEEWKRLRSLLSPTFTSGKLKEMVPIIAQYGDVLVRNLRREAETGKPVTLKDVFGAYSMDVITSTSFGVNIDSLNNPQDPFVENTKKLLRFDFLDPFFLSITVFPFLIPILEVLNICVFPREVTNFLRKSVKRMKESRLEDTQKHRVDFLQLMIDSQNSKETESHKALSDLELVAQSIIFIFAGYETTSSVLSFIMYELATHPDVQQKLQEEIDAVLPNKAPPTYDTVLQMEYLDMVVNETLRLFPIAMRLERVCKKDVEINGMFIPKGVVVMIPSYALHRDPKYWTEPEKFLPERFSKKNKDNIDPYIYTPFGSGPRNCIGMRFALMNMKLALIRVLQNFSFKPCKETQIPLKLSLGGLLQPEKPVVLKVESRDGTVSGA

NC[C@H]1OB(O)c2c(OCCO)ccc(Cl)c21 [GSK3036656, (S)-3-(aminomethyl)-4-chloro-7-(2-hydroxyethoxy)benzo[c][1,2]oxaborol-1(3H)-ol]
P-gp substrate [1]: not a P-glycoprotein (P-gp) substrate
dose-proportionality slope, Cmax ([2]; both): 1.19
steady-state AUC relative to the target exposure for efficacy in humans (1,740 ng · h/ml) ([2]; both): approximately 2.5 fold
accumulation of Cmax and AUC0–τ with repeated administration ([2]; both, 14 days): 2-3 fold
dose-proportionality slope, Cmax ([2]; both, 14 days): 1.06
RoCmax, geometric LS mean, Ref ([2]; 5 mg): 48.40 ng/mL
RoCmax, geometric LS mean, Test ([2]; 5 mg): 97.04 ng/mL
RoCmax, geometric LS mean, Ref ([2]; 15 mg): 178.79 ng/mL
RoCmax, geometric LS mean, Test ([2]; 15 mg): 309.55 ng/mL
AUC(0-inf) ([3]; both, 5 mg): 1.4 µg·h/mL
AUC(0-t) ([3]; both, 5 mg): 0.771 µg·h/mL
Cmax ([3]; both, 5 mg): 0.0491 µg/mL
Tmax ([3]; both, 5 mg): 1.1 h
AUC(0-inf) ([3]; both, 15 mg): 3.8 µg·h/mL
AUC(0-t) ([3]; both, 15 mg): 3.25 µg·h/mL
Cmax ([3]; both, 15 mg): 0.178 µg/mL
AUC(0-inf) ([3]; 25 mg): 6.56 µg·h/mL
AUC(0-t) ([3]; 25 mg): 5.69 µg·h/mL
Cmax ([3]; 25 mg): 0.207 µg/mL
Tmax ([3]; 25 mg): 1.1 h
maximum difference in the lungs compared to untreated mice ([4]; daily oral doses 0.1 to 100 mg/kg for 8 days): 3.6 log CFU
EDmax (effective dose giving 90% of the total effect) ([4]; sigmoidal fit): 1.1 mg/kg
AUC ([5]; both, 15 mg, steady-state AUC (on average)): 4.46 µg·h/mL
AUC(0-t) ([5]; po, 5 mg): 0.486 µg·h/mL
Cmax ([5]; po, 5 mg): 0.0484 µg/mL
Cmax at 14 days ([5]; po, 5 mg): 0.097 µg/mL
Tmax ([5]; po, 5 mg): 1.3 h
Tmax at 14 days ([5]; po, 5 mg): 0.8 h
AUC ([5]; po, 5 mg, AUC(Ro), geometric LS mean, Ref): 0.486 µg·h/mL
AUC ([5]; po, 5 mg, AUC(Ro), geometric LS mean, Test): 1.39 µg·h/mL
AUC ([5]; po, 5 mg, Geometric mean AUC0–τ (%CVb)): 1.39 µg·h/mL
AUC(0-t) ([5]; po, 15 mg): 1.89 µg·h/mL
Cmax ([5]; po, 15 mg): 0.179 µg/mL
Cmax at 14 days ([5]; po, 15 mg): 0.31 µg/mL
Tmax at 14 days ([5]; po, 15 mg): 0.8 h
AUC ([5]; po, 15 mg, AUC(Ro), geometric LS mean, Ref): 1.89 µg·h/mL
AUC ([5]; po, 15 mg, AUC(Ro), geometric LS mean, Test): 4.46 µg·h/mL
AUC ([5]; po, 15 mg, Geometric mean AUC0–τ (%CVb)): 4.46 µg·h/mL
EC50 ([6]; fast-growing population, SE = 13%, read-out: EC50-F in mouse): 0.0156 mg/L (≈ 0.0606 µM)
EC50 ([6]; slow-growing population, SE = 23%, read-out: EC50-S in mouse): 0.0317 mg/L (≈ 0.123 µM)
Emax-S (maximum killing rate against a slow-growing population) ([6]; fixed to estimated value from mouse infection models): 0.0037 (FIX)^b h^−1
CL/F, bootstrap median estimate ([7]; bootstrap (1,000 runs)): 3.7 L/h
IIV Q/F, bootstrap median estimate ([7]; bootstrap (1,000 runs)): 26.5
IIV V2/F, bootstrap median estimate ([7]; bootstrap (1,000 runs)): 107
IIV V3/F, bootstrap median estimate ([7]; bootstrap (1,000 runs)): 22.9
Q/F, bootstrap median estimate ([7]; bootstrap (1,000 runs)): 63.1 L/h
V2/F, bootstrap median estimate ([7]; bootstrap (1,000 runs)): 15.9 L
V3/F, bootstrap median estimate ([7]; bootstrap (1,000 runs)): 149 L
CL/F, estimate (%SE) ([7]; final population PK model): 3.69 (3) liters/h
Q/F, estimate (%SE) ([7]; final population PK model): 63 (15) liters/h
V2/F, estimate (%SE) ([7]; final population PK model): 14.9 (30) liters
V3/F, estimate (%SE) ([7]; final population PK model): 150 (6) liters
IIV Q/F, estimate (%SE) ([7]; random effects, final model): 27.3 (37)
IIV V2/F, estimate (%SE) ([7]; random effects, final model): 111 (37)
IIV V3/F, estimate (%SE) ([7]; random effects, final model): 23.3 (30)
AUC ([8]; plasma): 4.9 µg·h/mL
Cmax ([8]; serum): < 0.443 µg/mL
fraction unbound [9]: 0.792
metabolism-dependent inhibition or induction of CYP3A4 [10]: no evidence
No. (%) of subjects with AE: Musculoskeletal chest pain ([11]; single dose 5 mg (n = 6)): 0 No. (%)
No. (%) of subjects with AE: Musculoskeletal chest pain ([11]; single dose 5 mg, fed (n = 5)): 0 No. (%)
No. (%) of subjects with AE: Musculoskeletal chest pain ([11]; single dose 15 mg (n = 6)): 0 No. (%)
No. (%) of subjects with AE: Musculoskeletal chest pain ([11]; single dose 25 mg (n = 6)): 1 (17) No. (%)
fraction unbound [12]: 0.76
